What was measured:
[1] = test system: YUMC-H2 cell line; test: MTT cell viability of anticancer drug-resistant cancer cell line; assay type: cell-based, human; details: 200 μM, drug alone
[2] = test system: YUMC-P1 cell line; test: as above; assay type: cell-based, human; details: 200 μM, drug alone
[3] = test system: YUMC-H2 cell line; details: YUMC-H2 xenograft mice; oral, 13 times for 41 days; doses of Table 3
Procedure: (§1) 15 days after injection of each of the cell lines, when the tumor volume reached about 100 to 200 mm^3, mice having a tumor with the above volume were randomly grouped (n=10/group), and then each drug was administered to the mice 13 times for a total of 41 days under the conditions shown in Table 3 below. Then, the changes in tumor volume during this administration were measured, and the results of the measurement are shown in FIG. 3. In addition, the tumor was extracted and the net weight of the tumor was measured, and the results of the measurement are shown in FIG. 4. Here, nothing was administered to the control group.

[4] = test system: YUMC-P1 cell line; details: YUMC-P1 xenograft mice; oral, 13 times for 41 days; doses of Table 3
Procedure: as §1

[5] = test system: YUMC-C1 cell line; details: YUMC-C1 xenograft mice; oral, 13 times for 41 days; doses of Table 3; vs control group
Procedure: as §1

[6] = test system: YUMC-C1 cell line; details: 200 μM, drug alone
Procedure: Each of the YUMC-C1, YUMC-H2 and YUMC-P1 cell lines of Example 1 was inoculated into 96-well plates at a density of 6×10^3 cells/well and then cultured overnight to a confluence of 90%. […] However, when hydroflumethiazide was used in combination with oxaliplatin or sorafenib, the treatment concentration of each of oxaliplatin and sorafenib was 30 μM. Thereafter, cell viability was measured using the MTT reagent. The absorbance was measured at 550 nm, and viable cells were counted using trypan blue staining.

SMILES	cells survived [1]	cells survived [2]	net tumor weight [3]	tumor volume [3]	net tumor weight [4]	tumor volume [4]	net tumor weight [5]	tumor volume [5]	cells survived [6]
CNC(=O)c1cc(Oc2ccc(NC(=O)Nc3ccc(Cl)c(C(F)(F)F)c3)cc2)ccn1 [sorafenib]	more than 80%	more than 80%	no significant changes	no significant changes	no significant changes	no significant changes			
O=C1[O][Pt]2([NH][C@@H]3CCCC[C@H]3[NH]2)[O]C1=O [oxaliplatin]							did not significantly decrease	did not significantly decrease	more than 80%

— patent US20240016812A1, “COMPOSITION FOR PREVENTING, ALLEVIATING OR TREATING CANCER” (CKP Therapeutics, Inc., priority 2021, published 2024)
